Among the test systems are 786-0 renal; BT-549 breast; DU-145 prostate; KM12 colon; M14 melanoma; MDA-MB-231 breast; MDA-MB-435; SF-268 CNS; SK-MEL-2 melanoma; SNB-19 CNS; SR leukemia; MDA-N.
Test in all cases: NCI tumour cell line growth inhibition, 48 h

Structures are written as SMILES.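 Cultured in 96-well plates, cells were exposed to test compound for 48 hours across five concentrations. TGI is the concentration that stops growth completely.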

For the molecule `c1ccc(CSc2nc(N3CCOCC3)c3cn[nH]c3n2)cc1`, the TGI in the assay with 786-0 renal was greater than 100 µM; in the assay with BT-549 breast, 40.3 µM; with DU-145 prostate, greater than 100 µM; in the assay with KM12 colon, 38.5 µM; with M14 melanoma, 49 µM; in the assay with MDA-MB-231 breast it was 39.4 µM. Also, the TGI with MDA-MB-435 was 40 µM; in the assay with SF-268 CNS, 58.8 µM; in the assay with SK-MEL-2 melanoma, 34 µM; with SNB-19 CNS it was 87.4 µM; in the assay on SR leukemia it was 63.6 µM.
Regarding `Cc1cccc(NC(=S)N=Nc2c(O)[nH]c3ccccc23)c1`, the TGI in the assay on 786-0 renal was greater than 100 µM; in the assay with DU-145 prostate, 70.6 µM; in the assay with KM12 colon, greater than 100 µM; in the assay with M14 melanoma, greater than 100 µM; in the assay on MDA-MB-231 breast, greater than 100 µM; in the assay on MDA-MB-435, greater than 100 µM. In addition, the TGI with MDA-N was greater than 100 µM; in the assay with SF-268 CNS it was 58.7 µM; in the assay on SK-MEL-2 melanoma, greater than 100 µM; in the assay on SNB-19 CNS, greater than 100 µM; in the assay on SR leukemia it was greater than 100 µM.
Consider `COc1cc2c(c(OC)c1OC)-c1ccc(SC)cc1[C@H](OC(=O)c1ccccc1)CC2`, for which the TGI in the assay on 786-0 renal is greater than 100 µM; in the assay with BT-549 breast, greater than 100 µM; in the assay on DU-145 prostate, greater than 61 µM; with KM12 colon, greater than 100 µM; with MDA-MB-435, greater than 100 µM; in the assay with MDA-N it was 0.0222 µM. Moreover, the TGI with SF-268 CNS, with SK-MEL-2 melanoma and with SR leukemia was greater than 100 µM in each case.
In the case of `COC(=O)c1c(C)cccc1/C=C1\Cc2cc(C)cc(C)c2C1=O`, the TGI in the assay on 786-0 renal, with BT-549 breast, in the assay with DU-145 prostate, with KM12 colon, in the assay with M14 melanoma and in the assay on MDA-MB-231 breast was greater than 100 µM in each case. Moreover, the TGI is greater than 100 µM with MDA-N; greater than 100 µM in the assay on SF-268 CNS; 57.3 µM in the assay with SK-MEL-2 melanoma; greater than 100 µM in the assay with SNB-19 CNS; greater than 100 µM with SR leukemia.
Turning to `CC1(C)CC(=O)c2c(nc3ccc4ccccc4c3c2-c2ccc(NC(=O)CCC(=O)Nc3ccc(-c4c5c(nc6ccc7ccccc7c46)CC(C)(C)CC5=O)cc3)cc2)C1`, the TGI in the assay with 786-0 renal, in the assay with DU-145 prostate, in the assay with KM12 colon, in the assay with M14 melanoma, in the assay with MDA-MB-231 breast and with MDA-MB-435 was greater than 100 µM in each case. For the same molecule, the TGI with MDA-N, with SF-268 CNS, in the assay on SK-MEL-2 melanoma, in the assay with SNB-19 CNS and in the assay on SR leukemia was greater than 100 µM each time.
As for `CC1C[C@]2(C)C(=O)N(c3ccccc3)C(=N)[C@@H]2N(C)c2ccccc21` (stereo not given in full), the TGI with 786-0 renal, with DU-145 prostate, in the assay with KM12 colon, in the assay on M14 melanoma, with MDA-MB-231 breast and in the assay with MDA-MB-435 was greater than 100 µM throughout. Moreover, the TGI in the assay on MDA-N, in the assay on SF-268 CNS, in the assay on SK-MEL-2 melanoma, in the assay on SNB-19 CNS and in the assay with SR leukemia was greater than 100 µM each time.
On to `O[C@@H]1C[C@@H]2N[C@@](O)(C[C@@H]2O)[C@H]1O`, for which the TGI in the assay on 786-0 renal, in the assay with DU-145 prostate, in the assay on KM12 colon, with M14 melanoma, with MDA-MB-231 breast and in the assay with MDA-MB-435 was greater than 100 µM in each case. Also, the TGI with MDA-N, in the assay with SF-268 CNS, in the assay with SNB-19 CNS and in the assay on SR leukemia was greater than 100 µM in each case.
Consider `COc1cc(COC(=O)N2CCC2C(=O)O)c([N+](=O)[O-])cc1OC` (stereo not given), for which the TGI in the assay with 786-0 renal, in the assay on BT-549 breast, in the assay with DU-145 prostate, with KM12 colon, with M14 melanoma and in the assay with MDA-MB-435 was greater than 100 µM throughout. In addition, the TGI in the assay on MDA-N, in the assay with SF-268 CNS, with SNB-19 CNS and with SR leukemia was greater than 100 µM each time.
Take `CCOc1cc(NC(C)=O)ccc1C(=O)NN1C(=O)/C(=C/c2cc(OC)c(OC)c(OC)c2)N=C1c1ccccc1`: the TGI was greater than 100 µM with 786-0 renal; 69.2 µM with BT-549 breast; 98.2 µM with KM12 colon; greater than 100 µM in the assay with M14 melanoma; greater than 100 µM in the assay on MDA-MB-435; greater than 100 µM in the assay on MDA-N. Also, the TGI in the assay with SF-268 CNS, in the assay on SNB-19 CNS and with SR leukemia was greater than 100 µM in each case.
Take `CCC1C(c2cc(OC)c(OC)c(OC)c2)c2cc3c(cc2OC1N1CCOCC1)OCO3` (stereo not given): the TGI came to 28.8 µM in the assay with 786-0 renal; 22 µM in the assay on BT-549 breast; 28.9 µM in the assay on DU-145 prostate; 23.7 µM in the assay with M14 melanoma; 61.9 µM in the assay on MDA-MB-231 breast; 3.83 µM with MDA-N. The TGI in the assay on SF-268 CNS is 41.5 µM; with SK-MEL-2 melanoma, greater than 100 µM; in the assay on SNB-19 CNS, 25 µM; in the assay with SR leukemia it was greater than 100 µM.
For the molecule `c1cc2c(c(-c3c4ccccc4nc4ccccc34)c1)CC1(CC2)OCCO1`, the TGI in the assay on 786-0 renal, in the assay on BT-549 breast, in the assay on KM12 colon, in the assay with M14 melanoma, with MDA-MB-231 breast and in the assay on MDA-MB-435 was greater than 100 µM in each case. The TGI in the assay on MDA-N, in the assay with SF-268 CNS, in the assay on SK-MEL-2 melanoma and with SNB-19 CNS was greater than 100 µM throughout.
In the case of `CCC(=O)O[C@H]1CC[C@H]2[C@@H]3CCC4=C/C(=N/NC(=O)c5cccc6c(=O)c7ccccc7[nH]c56)CC[C@]4(C)[C@H]3CC[C@]12C`, the TGI in the assay on 786-0 renal was 10.3 µM; with BT-549 breast it was greater than 25 µM; in the assay on KM12 colon, greater than 25 µM; in the assay on M14 melanoma, greater than 25 µM; with MDA-MB-231 breast it was greater than 25 µM; in the assay on MDA-MB-435, greater than 25 µM. Besides, the TGI in the assay on MDA-N, in the assay with SF-268 CNS, with SK-MEL-2 melanoma, with SNB-19 CNS and in the assay with SR leukemia was greater than 25 µM each time.
Turning to `Cc1cccc(NC(=S)Nc2ccccc2Cl)n1`, the TGI is greater than 100 µM in the assay with 786-0 renal; greater than 100 µM in the assay with BT-549 breast; greater than 100 µM in the assay on DU-145 prostate; 79.4 µM in the assay with KM12 colon; greater than 100 µM in the assay on M14 melanoma; greater than 100 µM with MDA-MB-435. The TGI in the assay on MDA-N is greater than 100 µM; with SF-268 CNS it was 62 µM; with SK-MEL-2 melanoma, greater than 100 µM; in the assay with SNB-19 CNS it was 97.5 µM; in the assay with SR leukemia, greater than 100 µM.

The values above are taken from PubChem BioAssay (NCI).
